# Laboratory results published in PMC7982615, “Phase 1 study of telisotuzumab vedotin in Japanese patients with advanced solid tumors” (Cancer Medicine, 2021).
# Where two headings read alike, the source gives them in different places. Marks after values point to notes of the source that are not given here. Non-standard residues stand in square brackets, D forms with d. Residues, ends and D or L forms follow the SMILES beside them. *: point of attachment. Dolaproine = CO[C@@H]([C@@H]1CCCN1)[C@@H](C)C(=O)O; Dil = CC[C@H](C)[C@H](NC)[C@@H](CC(=O)O)OC; X1 = C[C@@H](N*)[C@@H](O)c1ccccc1; NMeV = CN[C@H](C(=O)O)C(C)C
# Experiments:
# [1] = test system: CD30‐positive Hodgkin lymphoma or systemic anaplastic large cell lymphoma; set-up: method as in PMID 24814862; conditions: US and Japanese patients; cited from earlier work
# [2] = test system: MET exon 14‐mutated NSCLC; set-up: method as in earlier work; conditions: cited from earlier work
# [3] = Pharmacokinetics of teliso‐v conjugate and MMAE, noncompartmental; type: in vivo, human; conditions: for AUCtau, MMAE / Cmax, MMAE: geometric mean (%CV); for t1/2, MMAE: harmonic mean (min-max); for Tmax, MMAE: median (min-max)
# Protocol: PK samples were also collected on cycles 2 and 4 predose and approximately 30 minutes after the end of infusion on day 1. PK parameters such as peak concentration (Cmax), time to peak concentration, area under the concentration‐time curve (AUC), and terminal half‐life (t1/2) were determined using noncompartmental methods.
# [4] = cycle 1, after teliso-v 2.4 mg/kg IV, n = 3
# [5] = cycle 1, after teliso-v 2.7 mg/kg IV, n = 6
compound,measurement,setting,value
brentuximab vedotin,Ethnic differences in PK,[1],no remarkable ethnic differences in PK were found
CNC(=O)c1ccc(-c2cnc3ncc(Cc4ccc5ncccc5c4)n3n2)cc1F [capmatinib],ORR,[2]; one to two prior lines of treatment,39.1%
same,ORR,[2]; treatment‐naive patients,71.4%
"CC[C@H](C)[C@@H]([C@@H](CC(=O)N1CCC[C@H]1[C@H](OC)[C@@H](C)C(=O)N[C@H](C)[C@@H](O)c1ccccc1)OC)N(C)C(=O)[C@@H](NC(=O)[C@@H](NC)C(C)C)C(C)C [MMAE, monomethyl auristatin E] (H-[NMeV]V[Dil][Dolaproine]-X1)",t1/2,"[3]; N = 9, both dose levels",96 to 140 h
same,"AUCtau, MMAE",[3]; [4],535 (7) ng*h/mL
same,"Cmax, MMAE",[3]; [4],1.69 (10) ng/mL
same,"t1/2, MMAE",[3]; [4],5.80 (4.5–7.8) days
same,"Tmax, MMAE",[3]; [4],168.5 (72.5–168.5) h
same,"t1/2, MMAE","[3]; cycle 1, after teliso-v 2.7 mg/kg IV, N = 4",4.01 (3–5.6)^c days
same,"AUCtau, MMAE",[3]; [5],764 (78) ng*h/mL
same,"Cmax, MMAE",[3]; [5],2.80 (77) ng/mL
same,"Tmax, MMAE",[3]; [5],168.5 (72.5–168.5) h
same,"Plasma Cmax, preliminary geometric mean","[3]; first dose of teliso‐v, cycle 1, across 2.4 and 2.7 mg/kg",1.69 to 2.80 ng/mL
same,Accumulation in cycle 3,[3]; multiple dosing Q3 W,1.1–1.2 fold
